Results taken from patent publication US9776991B2, “Thienomethylpiperazine derivatives as inhibitors of soluble epoxide hydrolase” (SANOFI, priority 2013, dated 2017).

Molecular target: recombinant sEH (soluble epoxide hydrolase, EPHX2) (Homo sapiens (Human), UniProt P34913)
Assay: biochemical fluorometric sEH inhibition assay with Phome substrate
Conditions: recombinant sEH purified from Sf9 insect cells, 2 nM sEH, 5 μM Phome, 60 minutes at 30° C.
In short: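 Human sEH expressed in Sf9 cells (2 nM final) pre-incubated 15 min at 30 °C with compound (0.0001-10 μM), then 5 μM Phome added for 60 min at 30 °C in 25 mM Hepes with 0.01% albumin. Fluorescent 6-methoxy-2-naphthaldehyde read before substrate addition and at the end; IC50 from % inhibition.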

recombinant sEH (soluble epoxide hydrolase, EPHX2), sequence (P34913 whole entry): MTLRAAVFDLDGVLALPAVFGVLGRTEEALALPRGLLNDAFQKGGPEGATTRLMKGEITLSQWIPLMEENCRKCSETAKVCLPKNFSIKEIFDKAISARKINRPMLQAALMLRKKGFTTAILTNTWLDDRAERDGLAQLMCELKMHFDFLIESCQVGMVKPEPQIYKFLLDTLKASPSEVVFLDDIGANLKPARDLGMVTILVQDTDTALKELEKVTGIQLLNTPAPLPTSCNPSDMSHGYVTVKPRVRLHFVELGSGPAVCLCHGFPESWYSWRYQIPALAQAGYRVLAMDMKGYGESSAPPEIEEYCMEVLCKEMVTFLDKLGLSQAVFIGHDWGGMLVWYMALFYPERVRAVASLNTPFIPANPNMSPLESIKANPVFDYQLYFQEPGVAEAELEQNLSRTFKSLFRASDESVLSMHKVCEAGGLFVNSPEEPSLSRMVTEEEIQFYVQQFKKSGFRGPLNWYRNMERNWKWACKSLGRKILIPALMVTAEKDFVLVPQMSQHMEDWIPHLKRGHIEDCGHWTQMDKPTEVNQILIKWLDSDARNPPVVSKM

SMILES | IC50
COCC(=O)N1CCN(Cc2ncc(C(=O)NCc3ccc(Cl)cc3Cl)s2)CC1 [Example 192] | 35.3 nM
O=C(NCc1ccc(Cl)cc1Cl)c1cnc(CN2CCN(C(=O)CN3CCOC3=O)CC2)s1 [Example 193] | 15.2 nM
Cc1cccnc1C(=O)N1CCN(Cc2ncc(C(=O)NCc3ccc(Cl)cc3Cl)s2)CC1 [Example 194] | 32 nM
N#CCC(=O)N1CCN(Cc2ncc(C(=O)NCc3ccc(Cl)cc3Cl)s2)CC1 [Example 195] | 73.6 nM
COc1cccnc1C(=O)N1CCN(Cc2ncc(C(=O)NCc3ccc(Cl)cc3Cl)s2)CC1 [Example 196] | 36.4 nM
CN1CC(C(=O)N2CCN(Cc3ncc(C(=O)NCc4ccc(Cl)cc4Cl)s3)CC2)CC1=O (centres unmarked) [Example 197] | 49.5 nM
CC(C)[C@@H](O)C(=O)N1CCN(Cc2ncc(C(=O)NCc3ccc(Cl)cc3Cl)s2)CC1 [Example 198] | 13.3 nM
CN(C)CCC(=O)N1CCN(Cc2ncc(C(=O)NCc3ccc(Cl)cc3Cl)s2)CC1 [Example 199] | 208 nM
NC1(C(=O)N2CCN(Cc3ncc(C(=O)NCc4ccc(Cl)cc4Cl)s3)CC2)CC1 [Example 200] | 2.57 nM
O=C(NCc1ccc(Cl)cc1Cl)c1cnc(CN2CCN(C(=O)C3(O)CC3)CC2)s1 [Example 201] | 6.37 nM
COc1cccc(C(=O)N2CCN(Cc3ncc(C(=O)NCc4ccc(Cl)cc4Cl)s3)CC2)n1 [Example 202] | 13.3 nM
O=C1NCC(C(=O)N2CCN(Cc3ncc(C(=O)NCc4ccc(Cl)cc4Cl)s3)CC2)N1 (centres unmarked) [Example 203] | 36.3 nM
CO[C@H](C)C(=O)N1CCN(Cc2ncc(C(=O)NCc3ccc(Cl)cc3Cl)s2)CC1 [Example 204] | 18.8 nM
COCC1(C(=O)N2CCN(Cc3ncc(C(=O)NCc4ccc(Cl)cc4Cl)s3)CC2)CC1 [Example 205] | 5.7 nM
Cc1n[nH]c(C)c1C(=O)N1CCN(Cc2ncc(C(=O)NCc3ccc(Cl)cc3Cl)s2)CC1 [Example 206] | 5.24 nM
COC(C)(C)C(=O)N1CCN(Cc2ncc(C(=O)NCc3ccc(Cl)cc3Cl)s2)CC1 [Example 207] | 6.31 nM
O=C(NCc1ccc(Cl)cc1Cl)c1cnc(CN2CCN(C(=O)C3CCO3)CC2)s1 (centres unmarked) [Example 208] | 9.67 nM
O=C(NCc1ccc(Cl)cc1Cl)c1cnc(CN2CCN(C(=O)C3CCC(O)C3)CC2)s1 (centres unmarked) [Example 209] | 3.49 nM
O=C(NCc1ccc(Cl)cc1Cl)c1cnc(CN2CCN(C(=O)CN3C[C@@H](O)CC3=O)CC2)s1 [Example 210] | 52.4 nM
O=C(NCc1ccc(Cl)cc1Cl)c1cnc(CN2CCN(C(=O)CN3CCC(O)C3)CC2)s1 (centres unmarked) [Example 211] | 90.9 nM
